Reference: patent US20240140941A1, “DERIVATIVE OF 2,5-DIKETOPIPERAZINE COMPOUND, AND PREPARATION METHOD THEREFOR, PHARMACEUTICAL COMPOSITION THEREOF AND USE THEREOF” (DALIAN WZ PROBIOTICS AD HEALTH CO., LTD, priority 2020, published 2024)
Counter-ions that a name gives are not always drawn. Like-named read-outs stand apart in the source and are kept apart here.

Key:
[1] = test system: NCI-H460; assay: Inhibition test on cell proliferation (MTT), NCI-H460; format: cell-based, human; settings: 72 hours of drug treatment, MTT, read-out: IC50 (nM) NCI-H460
Procedure, shortened: (§1)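 Cells plated at 2000-6000 per well, allowed to adhere for 24 h, then exposed to serially diluted compound for 72 h at 37 °C, 5% CO2. Viability read by MTT reduction, with formazan dissolved in DMSO and absorbance taken at 490 nm. Inhibition rate calculated relative to untreated and zero-setting wells.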

[2] = Compound solubility experiment, Method 1: equilibrium solubility in pure water, LC-MS; format: physicochemical; settings: 37 °C, thermodynamic from solid; ultrapure water, 37±1° C., shaken 24 hours
Protocol: Method 1: A 1.5 mL brown EP tube was taken, about 1 mg of compound was weighed respectively, and 1 mL of ultrapure water was added thereto. The mixture was vortexed, and sonicated until the compound was no longer dissolved (the solution was turbid or had suspended particles). The mixture was put into an incubation shaker, maintained at a temperature of (37±1° C.), shaken at 100 r/min for 24 hours, so as to achieve full dissolution equilibrium. After 24 hours, the supernatant was quickly filtered through a 0.45 μm microporous membrane, and the initial filtrate was discarded. 200 μL of the renewed filtrate was taken and diluted with 200 μL of methanol. The assay was repeated at least three times. According to the chromatographic conditions, the sample was injected by LC-MS, and the peak area was measured and the equilibrium solubility of each 2,5-diketopiperazine derivative in pure water was calculated.

[3] = test system: HCC-LM3; assay: Inhibition test on cell proliferation (MTT), HCC-LM3; format: cell-based, human; settings: 72 hours of drug treatment, MTT, read-out: IC50 (nM) HCC-LM3
Protocol: (§2) Tumor cells (NCI-H460, BxPC-3, HT-29, HCC-LM3) in the logarithmic growth phase were digested, centrifuged, and the supernatants were removed. Cells were resuspended by adding fresh culture medium, and counted using a cell counting plate. 100 μL of culture medium (containing cells) was added to a 96-well plate according to the standard of 2000 to 6000 cells per well and incubated in an incubator (37° C., 5% CO2) for 24 hours. After the cells were completely adhered to the wall, the test sample and Plinabulin were diluted to different concentrations using fresh culture medium, and 4 wells were set for each concentration. After 72 hours of drug treatment, the culture medium was removed, and 20 μL of MTT at a concentration of 5 mg/mL was added to each well. After 3-4 hours in the incubator, the MTT was discarded, and 100 μL of DMSO was added to each well, and placed in a 96-well plate shaker to completely dissolve the purple formazan. Subsequently, the absorbance (OD value) was detected at a wavelength of 490 nm using a microplate reader. The experiment also required setting up zero-setting wells (blank culture medium, MTT, DMSO). Cell inhibition rate=1−(OD value of drug-dosed group−OD value of zero-setting group)/(OD value of blank group−OD value of zero-setting group)×100%.

[4] = test system: HT-29; assay: Inhibition test on cell proliferation (MTT), HT-29; format: cell-based, human; settings: 72 hours of drug treatment
Protocol: as §2

[5] = test system: BxPC-3; assay: Inhibition test on cell proliferation (MTT), BxPC-3; format: cell-based, human; settings: 72 hours of drug treatment, MTT, read-out: IC50 (nM) BxPC-3
Procedure, shortened: as §1

[6] = Compound solubility experiment, Method 2: about 2 mg salt in 0.2 mL ultrapure water, dissolution observed; format: physicochemical; settings: 37 °C, thermodynamic from solid, salts, 37±1° C., shaken 24 hours
Protocol: Method 2: A 0.5 mL brown EP tube was taken, about 2 mg of hydrochloride of derivatives of 2,5-diketopiperazine compounds was weighed respectively, and 0.2 mL of ultrapure water was added thereto. The mixture was vortexed, put into an incubation shaker, maintained at a temperature of (37±1° C.), shaken at 100 r/min for 24 hours, so as to achieve full dissolution equilibrium. The dissolution of the mixture was observed.

Row | SMILES | IC50 ([1]; Homo sapiens, NCI-H460, 72 h) | solubility at 24 h [2] | IC50 ([3]; Homo sapiens, HCCLM3, 72 h) | IC50 ([4]; Homo sapiens, HT-29, 72 h) | IC50 ([5]; Homo sapiens, BXPC-3, 72 h) | IC50 ([1]; hydrochloride) | solubility at 24 h [6] | IC50 ([3]; hydrochloride) | IC50 ([4]; hydrochloride) | IC50 ([5]; hydrochloride) | further results
1 | O=c1[nH]/c(=C\c2ncn(CCCN3CCOCC3)c2C2CC2)c(=O)[nH]/c1=C\c1cccc(Oc2ccc(F)cc2)c1 [PLN-2-4] | 25.7 ± 2.62 nM | < 0.5 µg/mL |  |  |  |  |  |  |  |  | 
2 | CC(C)c1c(/C=c2\[nH]c(=O)/c(=C/c3cccc(F)c3)[nH]c2=O)ncn1CCCN1CCOCC1 [PLN-2-9, (3Z,6Z)-3-fluorophenylmethylene-6-((5-isopropyl-1-(−3-morpholinyl)propylimidazol-4-yl)methylene)piperazine-2,5-dione] | 8.51 ± 0.1 nM | < 0.5 µg/mL | 5.13 ± 0.12 nM | 4.37 ± 0.62 nM | 5.47 ± 0.57 nM |  |  |  |  |  | 
3 | CC(C)c1c(/C=c2\[nH]c(=O)/c(=C/c3ccccc3)[nH]c2=O)ncn1CCCN1CCOCC1 [PLN-2-5-1, (3Z,6Z)-3-Benzylidene-6-((5-isopropyl-1-(3-morpholinyl)propylimidazol-4-yl)methylene)piperazine-2,5-dione, hydrochloride] |  |  |  |  |  | 17.8 ± 0.55 nM | > 10000 µg/mL | 12.4 ± 2.68 nM | 11.8 ± 5.52 nM | 9.73 ± 0.3 nM | 
4 | O=c1[nH]/c(=C\c2ncn(CCCN3CCOCC3)c2C2CC2)c(=O)[nH]/c1=C\c1cccc(F)c1 [PLN-2-10, (3Z,6Z)-3-m-fluorophenylmethylene-6-((5-cyclopropyl-1-(−3-morpholinyl)propylimidazol-4-yl)methylene)piperazine-2,5-dione] | 17.7 ± 5.18 nM | < 0.5 µg/mL | 14.9 ± 0.22 nM | 10.6 ± 1.27 nM | 8.97 ± 0.74 nM |  |  |  |  |  | 
5 | O=c1[nH]/c(=C\c2ncn(CCCN3CCOCC3)c2C2CC2)c(=O)[nH]/c1=C\c1cccc(F)c1 [PLN-2-10-1, (3Z,6Z)-3-(3-Fluorophenyl)methylene-6-((5-cyclopropyl-1-(3-morpholinyl)propylimidazol-4-yl)methylene)piperazine-2,5-dione, hydrochloride] |  |  |  |  |  | 18.37 ± 0.13 nM | > 10000 µg/mL | 12 ± 2.67 nM | 11.1 ± 1.39 nM | 12 ± 1.27 nM | 
6 | CC(C)c1c(/C=c2\[nH]c(=O)/c(=C/c3ccccc3)[nH]c2=O)ncn1CCCN1CCOCC1 [PLN-2-5, (3Z,6Z)-3-benzylidene-6-((5-isopropyl-1-(−3-morpholinyl)propylimidazol-4-yl)methylene)piperazine-2,5-dione] | 19.4 ± 1.63 nM | < 0.5 µg/mL | 9.78 ± 2.21 nM | 11.8 ± 1.31 nM | 12.5 ± 1.47 nM |  |  |  |  |  | melting point: 199.1 to 201.1 °C
7 | CC(C)c1c(/C=c2\[nH]c(=O)/c(=C/c3cccc(C(=O)c4ccc(F)cc4)c3)[nH]c2=O)ncn1CCCN1CCOCC1 [PLN-2-1, (3Z,6Z)-3-(3-(p-fluorobenzoyl)phenyl)methylene-6-((5-isopropyl-1-(3-morpholinyl)propylimidazol-4-yl)methylene)piperazine-2,5-dione] |  | < 0.5 µg/mL |  |  |  |  |  |  |  |  | IC50 [1]: 3.45 ± 0.33 nM; IC50 [3]: 4.2 ± 0.12 nM; IC50 [4]: 1.03 ± 0.11 nM; IC50 [5]: 2.29 ± 0.82 nM
8 | CC(C)c1c(/C=c2\[nH]c(=O)/c(=C/c3cc(F)cc(F)c3)[nH]c2=O)ncn1CCCN1CCOCC1 [PLN-2-62-1, (3Z,6Z)-3-(3,5-Difluorophenyl)methylene-6-((5-isopropyl-1-(3-morpholinyl)propylimidazol-4-yl)methylene)piperazine-2,5-dione, hydrochloride] |  |  |  |  |  | 6.87 ± 0.47 nM | > 10000 µg/mL | 5.32 ± 1.38 nM | 3.79 ± 0.04 nM | 3.75 ± 0.06 nM | 
9 | CC(C)c1c(/C=c2\[nH]c(=O)/c(=C/c3cc(F)cc(F)c3)[nH]c2=O)ncn1CCCN1CCOCC1 [PLN-2-62] | 4.17 ± 0.75 nM | < 0.5 µg/mL | 3.89 ± 0.16 nM | 3.49 ± 0.23 nM | 3.44 ± 0.12 nM |  |  |  |  |  | 
10 | CC(C)c1c(/C=c2\[nH]c(=O)/c(=C/c3cccc(Oc4ccc(F)cc4)c3)[nH]c2=O)ncn1CCCN1CCOCC1 [PLN-2-2] | 5.25 ± 0.49 nM | < 0.5 µg/mL |  |  |  |  |  |  |  |  | IC50 [3]: 5.58 ± 1.03 nM; IC50 [4]: 3.83 ± 0.43 nM; IC50 [5]: 4.63 ± 0.16 nM; melting point: 194 to 195 °C
11 | O=C(c1ccc(F)cc1)c1cccc(/C=c2\[nH]c(=O)/c(=C/c3ncn(CCCN4CCOCC4)c3C3CC3)[nH]c2=O)c1 [PLN-2-3] | 4.9 ± 0.61 nM | < 0.25 µg/mL | 6.31 ± 0.16 nM | 2.15 ± 0.33 nM | 1.43 ± 0.95 nM |  |  |  |  |  | 
12 | O=c1[nH]/c(=C\c2ncn(CCCN3CCOCC3)c2C2CC2)c(=O)[nH]/c1=C\c1cccc(Oc2ccc(F)cc2)c1 [PLN-2-4-1, (3Z,6Z)-3-(3-(p-Fluorophenoxy)phenyl)methylene-6-((5-cyclopropyl-1-(3-morpholinyl)propylimidazol-4-yl)methylene)piperazine-2,5-dione, hydrochloride] |  |  |  |  |  | 23.8 ± 1.36 nM | > 10000 µg/mL |  |  |  | 
13 | CC(C)c1c(/C=c2\[nH]c(=O)/c(=C/c3cccc(Oc4ccc(F)cc4)c3)[nH]c2=O)ncn1CCCN1CCOCC1 [PLN-2-2-1, hydrochloride] |  |  |  |  |  | 2.8 ± 1.15 nM | > 10000 µg/mL | 1.76 ± 0.3 nM | 1.5 ± 0.58 nM | 1.21 ± 0.21 nM | 

Continued, in another order:

Row | IC50 ([1]; Homo sapiens, NCI-H460, 72 h) | solubility at 24 h [2] | IC50 ([3]; Homo sapiens, HCCLM3, 72 h) | IC50 ([4]; Homo sapiens, HT-29, 72 h) | IC50 ([5]; Homo sapiens, BXPC-3, 72 h) | IC50 ([1]; hydrochloride) | solubility at 24 h [6] | IC50 ([3]; hydrochloride) | IC50 ([4]; hydrochloride) | IC50 ([5]; hydrochloride) | SMILES | further results
14 |  |  |  |  |  | 94.7 ± 9.48 nM | > 10000 µg/mL | 66.6 ± 4.98 nM |  | 50.1 ± 7.79 nM | CC(C)c1c(/C=c2\[nH]c(=O)/c(=C/c3ccc(F)c(F)c3)[nH]c2=O)ncn1CCCN1CCOCC1 [PLN-2-63-1, hydrochloride] | 
15 | 6.12 ± 0.43 nM | < 0.5 µg/mL | 3.3 ± 1.88 nM | 4.03 ± 0.19 nM | 4.92 ± 1.48 nM |  |  |  |  |  | CC(C)c1c(/C=c2\[nH]c(=O)/c(=C/c3cc(F)ccc3F)[nH]c2=O)ncn1CCCN1CCOCC1 [PLN-2-7, (3Z,6Z)-3-(2,5-difluorophenyl)methylene-6-((5-isopropyl-1-(3-morpholinyl)propylimidazol-4-yl)methylene)piperazine-2,5-dione] | melting point: 211.6 to 213.6 °C
16 | 72.2 ± 4.86 nM | < 0.5 µg/mL | 64.9 ± 5.12 nM |  | 55.3 ± 3.42 nM |  |  |  |  |  | CC(C)c1c(/C=c2\[nH]c(=O)/c(=C/c3ccc(F)c(F)c3)[nH]c2=O)ncn1CCCN1CCOCC1 [PLN-2-63] | 
17 |  |  |  |  |  | 8.87 ± 0.05 nM | > 10000 µg/mL | 6.99 ± 0.59 nM | 6.22 ± 1.61 nM | 5.76 ± 1 nM | CC(C)c1c(/C=c2\[nH]c(=O)/c(=C/c3cccc(F)c3)[nH]c2=O)ncn1CCCN1CCOCC1 [PLN-2-9-1, (3Z,6Z)-3-(3-Fluorophenyl)methylene-6-((5-isopropyl-1-(3-morpholinyl)propylimidazol-4-yl)methylene)piperazine-2,5-dione, hydrochloride] | 
18 |  |  |  |  |  | 6.93 ± 4.85 nM | > 10000 µg/mL | 4 ± 1.5 nM | 5.61 ± 1.96 nM | 4.83 ± 0.2 nM | CC(C)c1c(/C=c2\[nH]c(=O)/c(=C/c3cc(F)ccc3F)[nH]c2=O)ncn1CCCN1CCOCC1 [PLN-2-7-1, (3Z,6Z)-3-(2,5-Difluorophenyl)methylene-6-((5-isopropyl-1-(3-morpholinyl)propylimidazol-4-yl)methylene)piperazine-2,5-dione, hydrochloride] | 
